Earlier results in patent publication US20160007613A1, “Clonostachys rosea Inoculated Plant Materials with Fungicides and Adjuvants” (priority 2014, published 2016).

Test system: Clonostachys rosea ACM941
Settings: research by Sutton and Brown; in words

Structure (SMILES)	toxicity to Clonostachys rosea ACM941
COCC(=O)N(c1c(C)cccc1C)C(C)C(=O)OC (centres unmarked) [metalaxyl]	not metalaxyl is toxic
CN(C)C(=S)SSC(=S)N(C)C [thiram]	toxic
